# Test: Dynamic Vapor Sorption (DVS), two sorption-desorption cycles 0-95-0% RH
# Type: physicochemical
# Details: for phase change from anhydrate to dihydrate, significant change in moisture (sorption curves): DVS sorption cycles
# Experimental: Approximately 2-16 mg of the sample was weighed into a metal receptacle, which was then released of static electricity. The metal receptacle was positioned in a Surface Measurements System Ltd DVS Advantage instrument. The sample was subjected to two consecutive sorption-desorption cycles, each running from 0-95-0% relative humidity (% RH). One cycle consisted of 21 steps, those between 0-90% RH were taken in 10% RH each. At each stage the following equilibrium criteria was used: dm/dt over 5 minutes <0,002% and the minimum and maximum time at each stage were 10 and 360 min respectively.
smiles,measurement,setting,value
"CCCCC1(CCCC)CN(c2ccccc2)c2cc(SC)c(OCC(=O)N[C@@H](C(=O)NCC(=O)O)c3ccccc3)cc2S(=O)(=O)C1 [crystal modification C, N-{(2R)-2-[({[3,3-dibutyl-7-(methylthio)-1,1-dioxido-5-phenyl-2,3,4,5-tetrahydro-1,5-benzothiazepin-8-yl]oxy}acetyl)amino]-2-phenylethanolyl}-glycine]","phase change from anhydrate to dihydrate, significant change in moisture (sorption curves)",listed as C,60-70 % RH
"CCCCC1(CCCC)CN(c2ccccc2)c2cc(SC)c(OCC(=O)N[C@@H](C(=O)NCC(=O)O)c3ccccc3)cc2S(=O)(=O)C1 [crystal modification L, N-{(2R)-2-[({[3,3-dibutyl-7-(methylthio)-1,1-dioxido-5-phenyl-2,3,4,5-tetrahydro-1,5-benzothiazepin-8-yl]oxy}acetyl)amino]-2-phenylethanolyl}-glycine]","phase change from anhydrate to dihydrate, significant change in moisture (sorption curves)",listed as L,40-50 % RH
"CCCCC1(CCCC)CN(c2ccccc2)c2cc(SC)c(OCC(=O)N[C@@H](C(=O)NCC(=O)O)c3ccccc3)cc2S(=O)(=O)C1 [crystal modification F, N-{(2R)-2-[({[3,3-dibutyl-7-(methylthio)-1,1-dioxido-5-phenyl-2,3,4,5-tetrahydro-1,5-benzothiazepin-8-yl]oxy}acetyl)amino]-2-phenylethanolyl}-glycine]",moisture uptake (DVS isotherm),"weight % water versus % RH, two consecutive DVS cycles, FIG. 10",linear function of % RH
"CCCCC1(CCCC)CN(c2ccccc2)c2cc(SC)c(OCC(=O)N[C@@H](C(=O)NCC(=O)O)c3ccccc3)cc2S(=O)(=O)C1 [crystal modification N, N-{(2R)-2-[({[3,3-dibutyl-7-(methylthio)-1,1-dioxido-5-phenyl-2,3,4,5-tetrahydro-1,5-benzothiazepin-8-yl]oxy}acetyl)amino]-2-phenylethanolyl}-glycine]",moisture amount where the four DVS curves coincide (dihydrate),"DVS, sorption and desorption curves of two cycles",around 5 % w/w
